Measured values: patent publication US20260124213A1, “STAPHYLOCOCCUS AUREUS PBP4 INHIBITORS AND METHOD OF USE” (UNIVERSITY OF ROCHESTER, priority 2022, published 2026)

Tests used:
[1] = test system: recombinant PBP4; assay: BOCILLIN FL labeling of PBP4, gel electrophoresis and fluorescence detection; assay type: binding; conditions: kanamycin 2000 μM or 5000 μM
Method: PBP4 BOCILLIN™ FL Binding Competition Assays. The ability of putative PBP4 inhibitors to impact the active site of recombinant PBP4 was assessed using two previously established BOCILLIN™-FL Penicillin (Penicillin V conjugated to BODIPY fluorescent dye) binding assays. First, fluorescence polarization assays were performed as previously described. Briefly, the indicated amount of the putative PBP4 inhibitor or control antibiotic was incubated with 1 μM recombinant B. subtilis PBP4 or S. aureus PBP2a in potassium phosphate buffer (40 mM K2HPO4 and 10 mM KH2PO4) for 1 hour in black 96-well microtiter plates (Corning Life Sciences®, Corning, NY). […] BOCILLIN™ FL fluorescence polarization was measured at (495nm excitation and 545nm emission) in a SpectraMax® M5 multimode plate reader (Molecular Devices®, San Jose, CA). […] Second, gel electrophoresis and fluorescence detection were used to measure BOCILLIN™ FL labeling of PBP4 treated with the known PBP4 inhibitor cefoxitin (positive control), kanamycin (negative control) or 9314848 (test compound). […] BOCILLIN™ FL labeled PBP4 was imaged at λ=365 nm using a BioRad© Gel Doc EZ™ Imaging system and the gel was then subsequently stained with Bio-safe Coomassie Brilliant Blue stain (BioRad©, Hercules, CA, USA) to measure the amount of protein present in each reaction condition and analyzed using NIH-ImageJ software. […]

[2] = test system: MRSA strain AH-1263; assay: Broth microdilution antibiotic potentiation; assay type: cell-based, Staphylococcus aureus; conditions: AH-1263; for Ampicillin MIC / Ampicillin MIC fold reduction / Cefotaxime MIC / Oxacillin MIC: Ex. 3 compound at 60 μM (18 and 19 at 30 μM)
Method: (§1) Broth Microdilution Method for Antibiotic Potentiation with MRSA Strains. Bacteria were cultured for 6 hours in CAMHB and sub-cultured to 5×10^5 CFU/mL in CAMHB. Subcultures were aliquoted (4 mL) into culture tubes and then inoculated with compound from 10 mM or 100 mM stock in DMSO to the desired concentration. […]. Bacteria treated with antibiotic alone served as the control. Samples from the secondary culture tubes were then aliquoted (200 μL) into the first row of wells of a 96-well microtiter plate. Rows 2-11 were filled (100 μL) with the remaining 4 mL of bacterial subculture containing the adjuvant. Row 12 was filled (100 μL) with uninoculated media. From row 1, 100 μL was transferred to row two and mixed 5-8 times before being transferred to row 3. This procedure was used to serial dilute the rest of the rows through 10. The microtiter plate was then covered in Press 'n Seal and incubated at 37° C.

[3] = test system: MRSA strain AH-2204; assay: Broth microdilution antibiotic potentiation; assay type: cell-based, Staphylococcus aureus; conditions: AH-2204
Method: as §1

[4] = test system: MRSA strain ATCC BAA-1556; assay: Broth microdilution antibiotic potentiation; assay type: cell-based, Staphylococcus aureus; conditions: ATCC BAA-1556
Method: as §1

[5] = test system: HEPG2 cells; assay: MTT cell viability / mammalian cytotoxicity; assay type: cell-based, human; conditions: compound at 100 μM; HEPG2 cells approximately 2.5 × 10^5 cells/mL
Method: Eukaryotic Toxicity Testing. Two rounds of eukaryotic toxicity testing were performed. Initially hits of interest were evaluated for antifungal activity in high throughput manner. To do so, 10^5 CFU of Saccharomyces cerevisiae YSB1001 cells (10 μL) were inoculated into individual wells of a microtiter plate containing yeast peptone dextrose media (88 μL) and 50 μM of each hit (2 μL). […] More extensive mammalian cytotoxicity testing was performed on the indicated highest priority hits of interest following International Organization for Standardization guidelines. Briefly, human liver epithelial cells (HEPG2) were cultured in Dulbecco's modified Eagle medium (DMEM; Fisher Scientific®) supplemented with 10% heat inactivated fetal bovine serum (FBS; Corning Life Sciences, Corning, NY) and 1% penicillin and streptomycin. Cells were incubated at 37° C. with 5% CO2 in Nunc™ tissue culture flasks (Roskilde, Denmark) until reaching 70% confluency. Cells were removed with 0.25% trypsin (Fisher Scientific®), resuspended in fresh medium, and used to seed approximately 2.5×10^5 mL^−1 cells into individual wells of a 96 well tissue culture microplate (Nunc™) containing 200 μL of fresh medium, and incubated for 24 hours. […] Mixtures were incubated for 20-24 h at 37° C. with 5% CO2, the media was removed and replaced with 100 μL fresh media and 10 μL of 12 mM (3-(4,5-dimethylthiazol-2-yl)-2,5-diphenyltetrazolium bromide (MTT) reagent (Cyquant™ Cell Viability kit; Invitrogen™, Carlsbad, CA) was added to each well. Cells were incubated at 37° C. with 5% CO2 for 2-4 hour, 85 μL of media was removed and the remainder was mixed with 50 μL DMSO and incubated for an additional 10 minutes at 37° C. in the dark. Using a SpectraMax® M5 microplate reader, cell viability was recorded as absorbance at OD540 nm. All compounds were tested in triplicate and cell viability was expressed as a percent viability of treated cells in comparison to mock treated cells. […]

[6] = molecular target: recombinant B. subtilis PBP4 (Bacillus subtilis, UniProt P40750); assay: BOCILLIN FL fluorescence polarization binding competition; conditions: compound 50 μM; Ex. 3 series
Sequence of recombinant B. subtilis PBP4 (P40750 22-624): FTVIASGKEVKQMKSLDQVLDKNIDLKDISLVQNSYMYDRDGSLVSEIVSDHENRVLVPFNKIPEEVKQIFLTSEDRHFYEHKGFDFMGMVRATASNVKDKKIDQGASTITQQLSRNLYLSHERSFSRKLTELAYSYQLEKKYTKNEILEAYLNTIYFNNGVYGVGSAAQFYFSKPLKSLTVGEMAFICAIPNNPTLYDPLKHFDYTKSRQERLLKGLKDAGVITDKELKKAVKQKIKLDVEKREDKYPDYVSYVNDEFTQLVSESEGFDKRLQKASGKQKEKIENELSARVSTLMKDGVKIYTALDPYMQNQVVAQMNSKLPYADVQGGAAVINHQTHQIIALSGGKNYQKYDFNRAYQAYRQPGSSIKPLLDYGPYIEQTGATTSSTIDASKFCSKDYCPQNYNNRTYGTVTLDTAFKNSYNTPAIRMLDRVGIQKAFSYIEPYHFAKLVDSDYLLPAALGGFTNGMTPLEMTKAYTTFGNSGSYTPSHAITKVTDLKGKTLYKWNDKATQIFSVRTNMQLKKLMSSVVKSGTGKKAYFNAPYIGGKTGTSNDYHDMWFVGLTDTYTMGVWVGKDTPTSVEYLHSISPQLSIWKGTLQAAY
Method: PBP4 BOCILLIN™ FL Binding Competition Assays. The ability of putative PBP4 inhibitors to impact the active site of recombinant PBP4 was assessed using two previously established BOCILLIN™-FL Penicillin (Penicillin V conjugated to BODIPY fluorescent dye) binding assays. First, fluorescence polarization assays were performed as previously described. Briefly, the indicated amount of the putative PBP4 inhibitor or control antibiotic was incubated with 1 μM recombinant B. subtilis PBP4 or S. aureus PBP2a in potassium phosphate buffer (40 mM K2HPO4 and 10 mM KH2PO4) for 1 hour in black 96-well microtiter plates (Corning Life Sciences®, Corning, NY). Following incubation, 1 μM (final concentration) BOCILLIN™ FL penicillin was added, and the mixture was incubated for 30 minutes. BOCILLIN™ FL fluorescence polarization was measured at (495nm excitation and 545nm emission) in a SpectraMax® M5 multimode plate reader (Molecular Devices®, San Jose, CA). All assays were repeated at least 8 times, averaged, and values falling outside of 2 standard deviations were considered outliers. Resulting data was plotted as percentage BOCILLIN™ FL binding inhibition=(T/U)×100; T=FL polarization of ((PBP4+BOCILLIN™ FL)−(PBP4+BOCILLIN™ FL+inhibitor compound)), U=FL polarization of ((PBP4+BOCILLIN™ FL)−(BOCILLIN™ FL)). Second, gel electrophoresis and fluorescence detection were used to measure BOCILLIN™ FL labeling of PBP4 treated with the known PBP4 inhibitor cefoxitin (positive control), kanamycin (negative control) or 9314848 (test compound). Briefly, 1 μM of recombinant PBP4 was mixed with 0, 50, 500, 2000, or 5000 μM 9314848 or control antibiotic in 50 mM phosphate buffer (pH 7.4) and incubated at 37° C. for 30 minutes. Next 40 μM of BOCILLIN™ FL was added to the reaction mixture and incubated for an additional 30 minutes at 37° C. Reactions were stopped by adding 5×SDS-PAGE gel loading dye, heated at 100° C. for 3 minutes and separated by electrophoresis in 12% SDS-PAGE (2 h, 120 Volts). BOCILLIN™ FL labeled PBP4 was imaged at λ=365 nm using a BioRad© Gel Doc EZ™ Imaging system and the gel was then subsequently stained with Bio-safe Coomassie Brilliant Blue stain (BioRad©, Hercules, CA, USA) to measure the amount of protein present in each reaction condition and analyzed using NIH-ImageJ software. The percent BOCILLIN™ FL binding was calculated by first normalizing the protein present in each reaction condition to that of untreated control and subsequently applying each reaction's protein normalization factor to each reaction's fluorescent signal. The percentage BOCILLIN™ FL binding inhibition was then calculated as the normalized band intensity of antibiotic/compound treated sample as compared to control sample (PBP4+BOCILLIN™ FL in the absence of compound).
To more directly evaluate whether 9314848 is likely to affect PBP4 function, the compound's ability to bind recombinant PBP4 was measured using BOCILLIN™ FL fluorescence polarization displacement assays. The premise for the assay is that the fluorescence polarization of the fluorescently labeled β-lactam, penicillin V (BOCILLIN™ FL), will increase upon binding to its cognate target (i.e., PBP4). Further, compounds that bind PBP4 and inhibit its function would impede BOCILLIN™ FL binding thereby allowing assessment of the protein binding affinity of 9314848 using a simple fluorescence reduction assay.

[7] = Staphylococcus aureus, MRSA, read-out: Cefoxitin MIC, no compound (—)
[8] = Ex. 3 compound at 60 μM (18 and 19 at 30 μM)

Row | Structure (SMILES) | Effect of preincubation on BOCILLIN FL labeling of PBP4 (gel) [1] | MIC [2, 7] | MIC [3, 7] | MIC ([4]; Staphylococcus aureus, read-out: Cefoxitin MIC, no compound (—)) | Toxicity with HEPG2 Cells (cell viability) [5] | Percentage Bocillin Displacement (%), PBP4 binding [6] | Ampicillin MIC [2] | Ampicillin MIC fold reduction [2] | Cefotaxime MIC [2] | Oxacillin MIC [2] | Ampicillin MIC [3, 8] | Cefotaxime MIC [3, 8] | Oxacillin MIC [3, 8] | Oxacillin MIC fold reduction [3, 8] | Ampicillin MIC [4, 8] | Cefotaxime MIC [4, 8] | Cefotaxime MIC fold reduction [4, 8] | Oxacillin MIC [4, 8] | Oxacillin MIC fold reduction [4, 8] | Cefotaxime MIC fold reduction [3, 8]
1 | CO[C@@]1(NC(=O)Cc2cccs2)C(=O)N2C(C(=O)O)=C(COC(N)=O)CS[C@@H]21 [Cefoxitin, cefoxitin] | reduced the protein's ability to bind the fluorescent substrate in a dose-dependent manner | 4 µg/mL | 2 µg/mL | 8 µg/mL |  |  |  |  |  |  |  |  |  |  |  |  |  |  |  | 
2 | O=C(Nc1ccc2[nH]c(-c3cc(Cl)cc(Cl)c3)nc2c1)c1ccco1 [Compound 33, N-(2-(3,5-Dichlorophenyl)-1H-benzo[d]imidazol-5-yl)furan-2-carboxamide] |  |  |  |  | 151 ± 11.3% | 56.5 ± 35.6% | 1 µg/mL | (16) | 32 µg/mL | 16 µg/mL | 2 µg/mL | 16 µg/mL | 4 µg/mL | (8) | 16 µg/mL | 16 µg/mL | (2) | 16 µg/mL | (2) | 
3 | O=C(Nc1ccc2[nH]c(C3CCCCC3)nc2c1)c1ccco1 [Compound 34, N-(2-Cyclohexyl-1H-benzo[d]imidazol-5-yl)furan-2-carboxamide] |  |  |  |  | 97 ± 5.8% | 60.3 ± 43.8% | 2 µg/mL | (8) | 32 µg/mL | 16 µg/mL | 2 µg/mL | 8 µg/mL | 8 µg/mL | (4) | 16 µg/mL | 32 µg/mL |  | 32 µg/mL |  | (2)
